Source: patent US6465527B1, “Iodinated hydrocarbon pesticide” (priority 1999, dated 2002)
Read-outs that look alike come from different tables or passages of the source.

Experiments:
Type in all cases: in vivo
[1] = tested on: American (Periplaneta americana) and German (Blattella germanica) cockroaches; assay: Knockdown and mortality of cockroaches in sealed jar (both species); conditions: for Sensitivity of American cockroaches compared with German cockroaches: in vivo; for Knockdown of cockroaches: within 1 hour after treatment, 50 μl on cotton ball in sealed 0.95-liter jar
Experimental: (§1) In this experiment both the insecticidal and nematicidal properties of iodinated hydrocarbons were compared. In determining the insecticidal properties of the iodinated hydrocarbons, both American (Periplaneta americana) and German (Blattella germanica) cockroaches were used. Groups of cockroaches were confined in 0.95-liter glass jars with a small cotton ball. Exactly 50 μl of a test chemical was applied to the cotton ball and the jar was sealed.

Meloidogyne arenaria = assay: Greenhouse nematicide test, diiodinated C2-C8 hydrocarbons in infested field soil (Experiments 1 and 2); conditions: for M. arenaria J2 populations in preplant samples: rates ≧5.0 mg
Experimental: (§2) Additionally, the nematicidal properties of iodinated hydrocarbons were investigated in greenhouse experiments with field soil infested with Meloidogyne arenaria and Heterodera Glycines. Chemicals were added directly to infested solid at rates <100 mg/Kg soil. Treated soil was kept moist (approximately 60 percent field capacity) and uncovered for 7-10 days when samples were collected, and the pots were planted with ‘Brim’ soybean, Glycine max. […] 1,2-diiodoethane (C2), 1,3-diiodopropane (C3), 1,4-diiodobutane (C4), 1,5-diiodopentane (C5), 1,6-diiodohexane (C6), and […] were applied to soil rates of 2.5, 5.0, 7.5, and 10 mg/Kg soil. All rates of C2 and C8 were ineffective in reducing M. arenaria juvenile (J2) populations in preplant samples. This was also true for C2 and J2 populations of H. glycines; however, […] rates ≧5.0 mg suppressed J2 populations of H. glycines. […] H. glycines J2 numbers in final soil samples were generally inversely related to rates for C3-C8. […] Applications of C3-C6 to soil increased shoot weights in a manner directly related to dosages but only in a curvilinear pattern.
(§3) In this experiment, the nematicidal properties of various diiodinated hydrocarbons were compared. The nematicidal properties of diiodinated C2-C8 normal hydrocarbons was assessed in a greenhouse experiment with field soil infested with Meloidogyne arenaria [Ma] and Heterodera glycines [Hg]. 1,2-diiodoethane [C2], 1,3-diiodopropane [C3], 1,4-diiodobutane [C4], 1.5-diiodopentane [C5], 1,6-diiodohexane [C6] and 1,8-diiodooctane [C8] were applied to soil at rates of 2.5, 5.0, 7.5, and 10.0 mgs/kg soil. The potted soil was kept moist in a greenhouse for 10 days when preplant samples were collected for analysis, and the pots were planted with ‘Brim’ soybean [Glycine max]. After 7 weeks of growth, the plants were removed and final soil samples taken. Data was collected on weights of fresh roots and shoots, root galling by Ma, and numbers of nematodes in soil and roots. All rates of C2 and C8 were ineffective in reducing Ma juvenile [J2] populations in the preplant samples. This was also true for C2 and J2 populations of Hg; however, C8 rates ≧5.0 mg suppressed J2 populations of Hg. […] Hg J2 numbers in final soil samples were generally inversely related to rates for C3-C8. This pattern of suppression in J2 numbers was also applicable to Ma in the final soil samples but only for C3-C6. […] Applications of C3-C6 to soil increased shoot weights in a manner directly related to dosages but non-linear in pattern.

Heterodera glycines = assay: as above; conditions: rates ≧5.0 mg
Experimental: as §2, §3

[2] = tested on: German cockroach, Blattella germanica (L.); assay: Fumigant toxicity in sealed glass jar, German cockroach; conditions: 30-60 adult males; for mortality at 50 µL/jar: Blattella germanica, inhaled or nasal
Experimental: (§4) As shown below, Table 1 depicts the toxicity of both monoiodinated and diiodinated hydrocarbons to both the German and the American cockroach after 1 hour of exposure.
(§5) Shown in Table 2 is the toxicity of both monoiodinated and diiodinated hydrocarbons to the German and American cockroach and the Cowpea weevil after 24 hours of exposure.
as §1, with “sealed. Knockdown, defined as the inability to walk in a coordinated manner, and mortality were assessed every 15 minutes for the first hour and hourly thereafter for 8 hours and again after 24 hours.” for “sealed.”

[3] = tested on: Cowpea weevil, Callosobruchus maculatus (F.); assay: Fumigant toxicity, Cowpea weevil; parameters: concentration or dose not given beside the values; conditions: 30 adults
Experimental: as §5

[4] = tested on: American cockroach, Periplaneta americana (L.); assay: Fumigant toxicity in sealed glass jar, American cockroach; conditions: 8-36 adult males; for mortality at 50 µL/jar: Periplaneta americana, inhaled or nasal
Experimental: as §4, §5
as §1, with “sealed. Knockdown, defined as the inability to walk in a coordinated manner, and mortality were assessed every 15 minutes for the first hour and hourly thereafter for 8 hours and again after 24 hours.” for “sealed.”

[5] = tested on: 'Brim' soybean [Glycine max]; assay: Soybean growth in treated soil (Experiments 1 and 2)
Experimental: as §2, §3

[6] = tested on: root-knot [Meloidogyne arenaria]; assay: Greenhouse nematicide test, iodinated C1-C3 hydrocarbons (Experiment 4); conditions: for M. arenaria [J2] juvenile populations in soil: 10 days after application, all rates (0.1, 0.2, 0.4 ml/kg soil)
Experimental: (§6) In this experiment, the nematicidal properties of low molecular weight iodinated hydrocarbons were investigated. The nematicidal properties of iodinated C1-C3 hydrocarbons were evaluated in greenhouse experiments with field soil infested with root-knot [Meloidogyne arenaria] and cyst [Heterodera glycines] nematodes. lodomethane, di-iodomethane, iodoethane, di-iodoethane, and 1-iodopropane were added to soil at rates of 0.1, 0.2 and 0.4 ml/kg soil.
(§7) The treated soil was kept moist for 10 days when soil samples were taken for nematode analysis and ‘Brim’ soybean [Glycine max] planted. Soybeans were allowed to grow for 8 weeks and then were removed from the soil to determine plant growth, root-knot indices and the number of galls generated by M arenaria. […] All compounds except 1-iodopropane increased fresh shoot weight when applied at ≧0.1 ml/kg soil.

[7] = tested on: cyst [Heterodera glycines]; assay: as above; conditions: 10 days after application; all dosages (0.1, 0.2, 0.4 ml/kg soil)
Experimental: as §6, §7

[8] = 1 h exposure, read-out: % Mortality after 1 h exposure, German cockroach
[9] = 24 h exposure, read-out: % Mortality after 24 h exposure, German cockroach
[10] = 1 h exposure, read-out: % Mortality after 1 h exposure, American cockroach
[11] = 24 h exposure, read-out: % Mortality after 24 h exposure, American cockroach

| Structure (SMILES) | Sensitivity of American cockroaches compared with German cockroaches [1] | M. arenaria J2 populations in preplant samples (Meloidogyne arenaria) | H. glycines J2 populations in preplant samples (Heterodera glycines) | mortality at 50 µL/jar [2, 8] [%] | mortality at 50 µL/jar [2, 9] [%] | % Mortality after 24 h exposure, Cowpea weevil [3] [%] | mortality at 50 µL/jar [4, 10] [%] | mortality at 50 µL/jar [4, 11] [%] | Knockdown of cockroaches [1] [%] | H. glycines J2 populations in soil [7] | other results |
| --- | --- | --- | --- | --- | --- | --- | --- | --- | --- | --- | --- |
| ICCCCCI [1,5-diiodopentane] | more sensitive | virtually eliminated | virtually eliminated | 0 | 0 | 37 | 11 | 0 | – | – | – |
| ICCCCCCI [1,6-diodohexane, 1,6-diiodohexane] | more sensitive | virtually eliminated | virtually eliminated | 0 | 0 | 0 | 5 | 0 | – | – | – |
| ICCCCCCCCI [1,8-diiodooctane] | – | – | suppressed | 0 | 0 | 0 | 0 | 0 | – | – | Shoot weights of soybean ([5]; 2.5 mg rate): increased shoot weights slightly; Shoot weights of soybean ([5]; rates higher than 2.5 mg): no significant effect; M. arenaria juvenile (J2) populations in preplant samples (Meloidogyne arenaria; all rates (2.5, 5.0, 7.5, 10 mg/Kg soil)): ineffective; M. arenaria J2 numbers in final soil samples (Meloidogyne arenaria; final soil samples after soybean growth, rates 2.5-10 mg/kg soil): did not change significantly |
| CCCI [1-iodopropane] | – | – | – | – | – | 97 | – | – | 100 | ineffective | % Mortality after 1 h exposure, German cockroach ([2]; 1 h exposure): 100%; % Mortality after 24 h exposure, German cockroach ([2]; 24 h exposure): 100%; M. arenaria [J2] juvenile populations in soil ([6]; listed as 1 iodopropane): ineffective; M. arenaria [J2] juvenile populations in soil ([6]; listed as iodopropane): increased directly; Root galling (root knot) by M. arenaria ([6]; soybean after 8 weeks, rates 0.1-0.4 ml/kg soil): no significant effect; % Mortality after 1 h exposure, American cockroach ([4]; 1 h exposure): 100%; % Mortality after 24 h exposure, American cockroach ([4]; 24 h exposure): 100% |
| CCI [iodoethane] | – | – | – | 100 | 100 | 100 | 100 | 100 | 100 | ineffective | M. arenaria [J2] juvenile populations in soil [6]: ineffective; Gall formation by M. arenaria ([6]; applied at ≧0.2 ml/kg soil): Significant suppression |
| IC(I)=C(I)I [tetraiodoethylene] | – | – | – | 0 | 3 | 0 | 0 | 0 | – | – | – |
